This is an account of results in US9744220B2, “Compositions and methods for treating inflammatory diseases” (priority 2013, dated 2017).

One test has as its system Trk. As to the kind of experiment: Pharmacological Trk inhibition of sPDNF-stimulated H9c2 cardiomyocytes. The test is classed as cell-based, rat. The note with it: K252a 200 nM 1 hr pre-incubation, sPDNF 1 μg/ml 3 hr.
In another test the test system is TrkA-positive PC12 cells. The note with it: bacterially-expressed truncated PDNF; cited from earlier work.

`COC(=O)[C@@]1(O)C[C@H]2O[C@]1(C)n1c3ccccc3c3c4c(c5c6ccccc6n2c5c31)C(=O)NC4` [K252a]: in the test on Trk, the “effect on sPDNF stimulation of FKN transcripts” value is “completely abrogated” and the “effect on sPDNF stimulation of MCP-1 transcripts” value is given as “completely abrogated”.

B1: truncated PDNF corresponding to amino acids 1-445 of SEQ ID NO:2: bacterially-expressed truncated PDNF, amino acids 1-445 of SEQ ID NO:2 (protein, listed as Trypanosoma cruzi)
chain: MGKTVVVASRMFWLMFFVPLLLAICPSEPAYALAPGSSRVELFKRKNSTVPFEDKAGKVTERVVHSFRLPALVNVDGVMVAIADARYDTSNDNSLIDTVAKYSVDDGETWETQIAIKNSRVSSVSRVVDPTVIVKGNKLYVLVGSYYSSRSYWSSHGDARDWDILLAVGEVTKSTAGGKITASIKWGSPVSLKKFFPAEMEGMHTNQFLGGAGVAIVASNGNLVYPVQVTNKKKQVFSKIFYSEDDGKTWKFGKGRSDFGCSEPVALEWEGKLIINTRVDWKRRLVYESSDMEKPWVEAVGTVSRVWGPSPKSNQPGSQSSFTAVTIEGMRVMLFTHPLNFKGRWLRDRLNLWLTDNQRIYNVGQVSIGDENSAYSSVLYKDDKLYCLHEINTDEVYSLVFARLVGELRIIKSVLRSWKNWDSHLSSICTPADPAASSSESGCGP
With B1, the “survival and differentiation of TrkA-positive PC12 cells” value with TrkA-positive PC12 cells was “promoted survival and differentiation”.

B2: truncated PDNF equivalent to amino acids 1-425 of SEQ ID NO:2: truncated PDNF, amino acids 1-425 of SEQ ID NO:2 (protein, listed as Trypanosoma cruzi)
chain: MGKTVVVASRMFWLMFFVPLLLAICPSEPAYALAPGSSRVELFKRKNSTVPFEDKAGKVTERVVHSFRLPALVNVDGVMVAIADARYDTSNDNSLIDTVAKYSVDDGETWETQIAIKNSRVSSVSRVVDPTVIVKGNKLYVLVGSYYSSRSYWSSHGDARDWDILLAVGEVTKSTAGGKITASIKWGSPVSLKKFFPAEMEGMHTNQFLGGAGVAIVASNGNLVYPVQVTNKKKQVFSKIFYSEDDGKTWKFGKGRSDFGCSEPVALEWEGKLIINTRVDWKRRLVYESSDMEKPWVEAVGTVSRVWGPSPKSNQPGSQSSFTAVTIEGMRVMLFTHPLNFKGRWLRDRLNLWLTDNQRIYNVGQVSIGDENSAYSSVLYKDDKLYCLHEINTDEVYSLVFARLVGELRIIKSVLRSWKNWDSHL
For B2, the “survival and differentiation of TrkA-positive PC12 cells” value with TrkA-positive PC12 cells is on record as “did not”.
